# Assay results from the supplement of paper PMC11061612.
# How the values were obtained:
# [1] = system: COLO-668 (Small Cell Lung Carcinoma); assay: Bliss excess, mean over the matrix (fraction); higher = more synergy
# How it was run: (§1)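 Cell lines grown in DMEM/F12 or RPMI with 10% FBS were plated in 1536-well plates and held 24 hours at 37°C, 5% CO2 before 72 hours of exposure to two-drug dose matrices, with DMSO typically at 0.2%. CellTiter-Glo 2.0 luminescence gave viability, which was converted to inhibition. Vehicle wells were set to 0 and blank wells to 1. Combination Emax is the second-highest inhibition in the matrix, and Bliss excess is the observed combination effect minus the expected EA + EB − EA·EB, where EA and EB are the single-agent effects.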
# [2] = system: SW872 (Other Solid Carcinomas); assay: as above
# How it was run: as §1
# [3] = system: NCI-H2122 (Lung Adenocarcinoma); assay: combination Emax (second highest fraction inhibited in the dose matrix, 72 h); higher = more inhibition; extreme values may be limits of the assay
# How it was run: as §1
# [4] = system: SW982 (Other Solid Carcinomas); assay: as above
# How it was run: as §1
# [5] = system: SK-LU-1 (Lung Adenocarcinoma); assay: as above
# How it was run: as §1
# [6] = system: OE33 (Esophageal Adenocarcinoma); assay: as above
# How it was run: as §1
# [7] = system: NCI-H1092 (Small Cell Lung Carcinoma); assay: as above
# How it was run: as §1
# SK-N-AS (Neuroblastoma) = assay: as above
# How it was run: as §1
# [8] = system: Ca-Ski (Cervical Carcinoma); assay: as above
# How it was run: as §1
# [9] = system: DU-145 (Prostate Carcinoma); assay: as above
# How it was run: as §1
# [10] = system: EFO-21 (Ovarian Carcinoma); assay: as above
# How it was run: as §1
# [11] = system: COLO-668 (Small Cell Lung Carcinoma); assay: as above
# How it was run: as §1
# [12] = system: NCI-H522 (Lung Adenocarcinoma); assay: as above
# How it was run: as §1
# [13] = system: NCI-H1355 (Lung Adenocarcinoma); assay: as above
# How it was run: as §1
# [14] = system: EJM (Plasma Cell Myeloma); assay: as above
# How it was run: as §1
# [15] = system: HCC1500 (Breast Carcinoma); assay: as above
# How it was run: as §1
# [16] = system: HCC1937 (Breast Carcinoma); assay: as above
# How it was run: as §1
# [17] = system: SNU-387 (Hepatocellular Carcinoma); assay: as above
# How it was run: as §1
# [18] = system: G-401 (Other Solid Carcinomas); assay: as above
# How it was run: as §1
# [19] = system: NCI-H1838 (Lung Adenocarcinoma); assay: as above
# How it was run: as §1
# 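Wherever Bliss excess, mean over the matrix is given: after 72 h of two-drug dosing.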
compound,measurement,setting,value
"COc1nnc2ccc(N3CCC(c4ccc(OCCN5CCN(C)C(=O)[C@H]5C)cc4)CC3)nn12 [AZD5153] + C=CCn1c(=O)c2cnc(Nc3ccc(N4CCN(C)CC4)cc3)nc2n1-c1cccc(C(C)(C)O)n1 [AZD1775] (first compound max 1 µM, partner max 1 µM)",Bliss excess,[1],-0.0349
same,Bliss excess,[2],-0.0374
same,combination Emax,[3],0.993
same,combination Emax,[4],0.825
same,combination Emax,[5],0.442
same,combination Emax,[6],0.435
same,combination Emax,[7],0.684
same,combination Emax,SK-N-AS (Neuroblastoma),0.669
same,combination Emax,[8],0.791
same,combination Emax,[9],0.316
same,combination Emax,[10],0.51
same,combination Emax,[11],0.665
same,combination Emax,[12],0.51
same,combination Emax,[13],0.57
same,combination Emax,[14],0.867
same,combination Emax,[15],0.402
same,combination Emax,[16],0.472
same,combination Emax,[17],0.469
same,combination Emax,[18],0.914
same,combination Emax,[19],0.441
